Data on 25 compounds can be found in patent publication US9920010B2, “CXCR7 receptor modulators” (IDORSIA PHARMACEUTICALS LTD, priority 2013, dated 2018).

This assay has as its target T1, CXCR7 (Homo sapiens, UniProt P25106).
T1 construct: host or cells: CHO-K1 (PathHunter CHO-K1 CXCR7 b-arrestin cell line, stably transfected)
Briefly: PathHunter CHO-K1 CXCR7 b-arrestin recruitment assay (CXCR7 agonistic activity). The assay is classed as cell-based. As to conditions: PathHunter CHO-K1 CXCR7 b-arrestin cell line. The protocol:
The CXCl12 receptor and CXCR7 agonistic activities of the compounds of formula (I) are determined in accordance with the following experimental method.
The assay is using the PathHunter™ CHO-K1 CXCR7 b-arrestin cell line from DiscoverX. The system is based on the Enzyme Fragment Complementation Technology. Two complementing fragments of the b-galactosidase enzyme are expressed within stably transfected cells. The larger portion of b-gal, termed EA for Enzyme Acceptor, is fused to the C-terminus of b-arrestin 2. The smaller fragment, termed ProLink™ tag, is fused to CXCR7 at the C-terminus. Upon activation, b-arrestin is recruited which forces the interaction of ProLink and EA, allowing complementation of the two fragments of b-gal and the formation of a functional enzyme which is capable of hydrolysing the substrate and generating a chemiluminescent signal.
CHO-K1 CXCR7 b-arrestin cells are detached from culture dishes with a cell dissociation buffer (Invitrogen, #13151-014) and collected in growing medium (F12 HAMS 90% (v/v)/FCS 10% (v/v), Penicillin/streptomycin 1% (v/v)). 5000 cells per well (in 20 μl) are seeded in a 384 well plate (white-walled, clear bottom; BD Falcon #353274). The plate is incubated at 37° C./5% CO2 for 24 hours. Medium is then replaced by 20 μl OPTIMEM (Invitrogen #31985) for 3 to 4 hours. Test compounds are dissolved at 10 mM in DMSO and serially diluted in DMSO to 200× of the final concentration for dose response curves. Compounds are then diluted 1:33.3 in HBSS1×. 5 μl/well of HBSS1×/20 mM HEPES/0.2% BSA are added to the assay plate followed by addition of 5 μl/well of diluted compounds. CXCL12 (Peprotech #300-28A) may be used as a reference agonist. The plate is incubated for 90 minutes at 37° C. 12 μl of detection reagent (Path Hunter Detection Kit, DiscoveRx, #93-0001) is transferred to the assay plate and to the plate is incubated for 1 hour at room temperature. Luminescent signal is read in a microplate reader (FLUOstar Optima, bmg). The calculated EC50 values may fluctuate depending on the daily cellular assay performance. Fluctuations of this kind are known to those skilled in the art. Average EC50 values from several measurements are given as geometric mean values.

T1 sequence (P25106 whole entry): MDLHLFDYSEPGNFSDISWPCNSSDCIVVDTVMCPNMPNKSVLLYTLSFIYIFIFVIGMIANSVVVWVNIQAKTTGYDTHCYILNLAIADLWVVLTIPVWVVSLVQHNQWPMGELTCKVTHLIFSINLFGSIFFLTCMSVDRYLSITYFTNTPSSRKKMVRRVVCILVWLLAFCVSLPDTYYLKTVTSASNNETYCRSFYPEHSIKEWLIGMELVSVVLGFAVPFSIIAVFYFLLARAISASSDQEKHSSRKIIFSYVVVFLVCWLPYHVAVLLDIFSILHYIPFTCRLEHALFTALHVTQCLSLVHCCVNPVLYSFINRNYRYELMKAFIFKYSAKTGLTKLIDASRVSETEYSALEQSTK
T1 sequence (P32121 whole entry partner): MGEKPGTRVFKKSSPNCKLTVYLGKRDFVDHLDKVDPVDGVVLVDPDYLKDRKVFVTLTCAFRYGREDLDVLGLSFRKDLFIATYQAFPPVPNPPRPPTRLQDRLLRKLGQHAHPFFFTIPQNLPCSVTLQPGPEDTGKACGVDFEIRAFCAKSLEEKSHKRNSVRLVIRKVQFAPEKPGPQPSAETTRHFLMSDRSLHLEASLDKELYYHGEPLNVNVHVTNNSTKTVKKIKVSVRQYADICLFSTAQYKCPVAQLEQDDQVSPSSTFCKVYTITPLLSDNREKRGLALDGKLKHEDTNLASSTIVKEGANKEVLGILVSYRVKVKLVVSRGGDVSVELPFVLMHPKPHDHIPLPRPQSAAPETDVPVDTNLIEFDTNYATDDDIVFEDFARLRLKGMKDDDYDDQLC

Compound `O=C(CNc1cccc2c1CN(CC1CC1)CC2)N(CCN1CCC(F)(F)C1)Cc1ccccc1C(F)(F)F` [compound 479] yielded an EC50 of 78 nM.

Compound `COCCN1CCc2c(CCC(=O)N(CCN(C)C)Cc3ncccc3C(F)(F)F)cccc2C1` [Example 336, N-(2-Dimethylamino-ethyl)-3-[2-(2-methoxy-ethyl)-1,2,3,4-tetrahydro-isoquinolin-5-yl]-N-(3-trifluoromethyl-pyridin-2-ylmethyl)-propionamide] showed an EC50 of 47 nM.

`CCS(=O)(=O)N1CCc2c(cccc2NCC(=O)N(CCN(C)C)Cc2ccccc2C(F)(F)F)C1` [Example 103, N-(2-Dimethylamino-ethyl)-2-(2-ethanesulfonyl-1,2,3,4-tetrahydro-isoquinolin-5-ylamino)-N-(2-trifluoromethyl-benzyl)-acetamide] returned an EC50 of 97 nM.

`CC(C)(C)OC(=O)N1CCC(N(Cc2ccccc2C(F)(F)F)C(=O)CNc2cccc3c2CCN(CC2CC2)C3)CC1` [Example 252, 4-[[2-(2-Cyclopropylmethyl-1,2,3,4-tetrahydro-isoquinolin-5-ylamino)-acetyl]-(2-trifluoromethyl-benzyl)-amino]-piperidine-1-carboxylic acid tert-butyl ester]: the midpoint of the response, the EC50, lay at 426 nM.

In the case of `CCN1CCc2cccc(NCC(=O)N(CCN(C)C)Cc3ccccc3Cl)c2C1` [compound 500, N-(2-Chloro-benzyl)-N-(2-dimethylamino-ethyl)-2-(2-ethyl-1,2,3,4-tetrahydro-isoquinolin-8-ylamino)-acetamide], it took 31 nM to reach a half-maximal effect (EC50).

Take `CN(C)CCN(Cc1ccccc1Cl)C(=O)CNc1cc(C(F)(F)F)cc2c1CCN(CC1CC1)C2` [Example 295, N-(2-Chloro-benzyl)-2-(2-cyclopropylmethyl-7-trifluoromethyl-1,2,3,4-tetrahydro-isoquinolin-5-ylamino)-N-(2-dimethylamino-ethyl)-acetamide]: the EC50 came out at 411 nM.

With `CNCCN(Cc1ncccc1C(F)(F)F)C(=O)CNc1cccc2c1CCN(C(=O)C(C)(C)C)C2` [compound 415], it took 178 nM to reach a half-maximal effect (EC50).

Turning to `NCCN(Cc1ccc(C(F)(F)F)cc1)C(=O)CNc1cccc2c1CCN(CC1CC1)C2` [Example 73, N-(2-Amino-ethyl)-2-(2-cyclopropylmethyl-1,2,3,4-tetrahydro-isoquinolin-5-ylamino)-N-(4-trifluoromethyl-benzyl)-acetamide], the EC50 was determined as 66 nM.

For the compound `CNCCN(Cc1ncccc1C(F)(F)F)C(=O)CNc1cccc2c1CCN(C(C)=O)C2` [compound 408, 2-(2-Acetyl-1,2,3,4-tetrahydro-isoquinolin-5-ylamino)-N-(2-methylamino-ethyl)-N-(3-trifluoromethyl-pyridin-2-ylmethyl)-acetamide], the EC50 was determined as 10 nM.

Consider `CN1CCCC1CCN(CCc1ccccc1)C(=O)CNc1cccc2c1CCN(CC1CC1)C2` (racemic) [Example 49, rac-2-(2-Cyclopropylmethyl-1,2,3,4-tetrahydro-isoquinolin-5-ylamino)-N-[2-(1-methyl-pyrrolidin-2-yl)-ethyl]-N-phenethyl-acetamide], for which the EC50 came to 16 nM.

The compound `CCN1CCc2c(cccc2OCC(=O)N(CCN(C)C)Cc2ccccc2C(F)(F)F)C1` [compound 173, N-(2-Dimethylamino-ethyl)-2-(2-ethyl-1,2,3,4-tetrahydro-isoquinolin-5-yloxy)-N-(2-trifluoromethyl-benzyl)-acetamide] showed an EC50 of 5 nM.

Consider `CCN1CCc2cccc(NCC(=O)N(CCN3CCOCC3)Cc3ccccc3C(F)(F)F)c2C1` [compound 510], for which the response was half-maximal at 109 nM (EC50).

Turning to `CC(C)OC(=O)N1CCc2cccc(NCC(=O)N(CCN(C)C)Cc3ccccc3C(F)(F)F)c2C1` [compound 553, 8-({[(2-Dimethylamino-ethyl)-(2-trifluoromethyl-benzyl)-carbamoyl]-methyl}-amino)-3,4-dihydro-1H-isoquinoline-2-carboxylic acid isopropyl ester], the midpoint of the response, the EC50, lay at 14 nM.

Compound `O=C(CNc1cccc2c1CCN(CC1CC1)C2)N(Cc1cncs1)Cc1ccccc1C(F)(F)F` [Example 247, 2-(2-Cyclopropylmethyl-1,2,3,4-tetrahydro-isoquinolin-5-ylamino)-N-thiazol-5-ylmethyl-N-(2-trifluoromethyl-benzyl)-acetamide] showed an EC50 of 29 nM.

`C=CCN(C)CCN(Cc1ccccc1C(F)(F)F)C(=O)CNc1cccc2c1CCN(CC1CC1)C2` [Example 245, N-[2-(Allyl-methyl-amino)-ethyl]-2-(2-cyclopropylmethyl-1,2,3,4-tetrahydro-isoquinolin-5-ylamino)-N-(2-trifluoromethyl-benzyl)-acetamide] showed an EC50 of 3 nM.

The compound `CN(C)CCN(Cc1ccccc1C(F)(F)F)C(=O)CNc1cccc2c1CN(CC1CC1)CC2(C)C` [compound 199] had an EC50 of 255 nM.

`CCC(=O)N1CCc2c(cccc2NCC(=O)N(CCN(C)C)Cc2ccc(F)cc2)C1` [Example 22, N-(2-Dimethylamino-ethyl)-N-(4-fluoro-benzyl)-2-(2-propionyl-1,2,3,4-tetrahydro-isoquinolin-5-ylamino)-acetamide] yielded an EC50 of 80 nM.

The compound `CN(C)CCN(Cc1ccccc1C(F)(F)F)C(=O)CNc1ccc(F)c2c1CCN(CC1CC1)C2` [Example 288, 2-(2-Cyclopropylmethyl-8-fluoro-1,2,3,4-tetrahydro-isoquinolin-5-ylamino)-N-(2-dimethylamino-ethyl)-N-(2-trifluoromethyl-benzyl)-acetamide] came in with an EC50 of 23 nM.

The compound `CCN1CCc2cccc(NCC(=O)N(CCc3ccccc3)CCN(C)C)c2C1` [compound 542] yielded an EC50 of 113 nM.

Compound `CC(C)CN1Cc2cccc(NCC(=O)N(CCN3CCCC3)Cc3ccccc3C(F)(F)F)c2CC1=O` [Example 314, 2-(2-Isobutyl-3-oxo-1,2,3,4-tetrahydro-isoquinolin-5-ylamino)-N-(2-pyrrolidin-1-yl-ethyl)-N-(2-trifluoromethyl-benzyl)-acetamide] registered an EC50 of 23 nM.

`CN(C)CCN(Cc1ccccc1)C(=O)CNc1cccc2c1CN(Cc1ccccc1)CC2` [compound 193, N-Benzyl-2-(2-benzyl-1,2,3,4-tetrahydro-isoquinolin-8-ylamino)-N-(2-dimethylamino-ethyl)-acetamide] had an EC50 of 48 nM.

On to `CN(C)CCN(Cc1ccccc1C(F)(F)F)C(=O)Cc1cccc2c1CCN(CC1CC1)C2` [Example 6, 2-(2-Cyclopropylmethyl-1,2,3,4-tetrahydro-isoquinolin-5-yl)-N-(2-dimethylamino-ethyl)-N-(2-trifluoromethyl-benzyl)-acetamide], for which a half-maximal effect (EC50) was put at 60 nM.

Regarding `CNCCN(Cc1ncccc1C(F)(F)F)C(=O)CNc1cccc2c1CCN(C(=O)NC(C)(C)C)C2` [compound 432, 5-({[(2-Methylamino-ethyl)-(3-trifluoromethyl-pyridin-2-ylmethyl)-carbamoyl]-methyl}-amino)-3,4-dihydro-1H-isoquinoline-2-carboxylic acid tert-butylamide], the EC50 stood at 42 nM.

`CNCCN(Cc1ncccc1C(F)(F)F)C(=O)CNc1cccc2c1CCN(C(=O)NC1CCCCC1)C2` [compound 433] registered a half-maximal effective concentration (EC50) of 166 nM.

`C#CCOC(=O)N1CCc2c(cccc2NCC(=O)N(CCNC)Cc2ncccc2C(F)(F)F)C1` [compound 421, 5-({[(2-Methylamino-ethyl)-(3-trifluoromethyl-pyridin-2-ylmethyl)-carbamoyl]-methyl}-amino)-3,4-dihydro-1H-isoquinoline-2-carboxylic acid prop-2-ynyl ester] gave an EC50 of 29 nM.
